Results taken from patent publication US7858621B2 (Amorepacific Corporation, priority 2006, dated 2010).

Molecular target: T1, vanilloid receptor (Rattus norvegicus, UniProt O35433)
T1 construct: DRG nerve cells from the primary culture of 2 days were equilibrated; endogenous in cells; host or cells: primary culture of dorsal root ganglion neurons from neonatal SD rats
Experiment: 45Ca influx test in cultured neonatal rat DRG neurons, inhibition of capsaicin response
Assay type: cell-based
Conditions: neonatal rat DRG neurons, capsaicin 0.5 μM, 45Ca influx; read-out: Antagonist Calcium Uptake Test (IC50)
Description: 1) Separation of Spinal Dorsal Root Ganglia (DRG) in Newborn Rats and Primary Culture Thereof
Neonatal (2-3 day old or younger than 2-3 day old) SD rats were put in ice for 5 minutes to anesthetize and disinfected with 70% ethanol. […] The DRG were incubated sequentially at 37° C. for 30 mins in 200 U/ml collagenase and 2.5 mg/ml trypsin, separately. The ganglia were washed twice with DME/F12 medium supplemented with 10% horse serum, triturated through a fire-polished Pasteur pipette, filtered through Nitex 80 membrane to obtain single cell suspension and the suspension was washed once more. This was subjected to centrifugation, then resuspended in cell culture medium at certain level of cell density. As the cell culture medium, DME/F12 medium supplemented with 10% horse serum was diluted with identical medium conditioned by C6 glioma cells 2 days on a confluent monolayer (1:1), and NGF (Nerve Growth Factor) was added to adjust 200 ng/ml as final concentration. After the cells were grown 2 days in medium where cytosine arabinoside (Ara-C, 100 μM) was added to kill dividing nonneuronal cells, medium was changed to one without Ara-C. The resuspended cells were plated at a density of 1500-2000 neurons/well onto Terasaki plates previously coated with 10 μg/ml poly-D-ornithine.
2) ^45Ca Influx Experiments
DRG nerve cells from the primary culture of 2 days were equilibrated by washing 4 times with HEPES (10 mM, pH 7.4)-buffered Ca^2+, Mg^2+-free HBSS (H-HBSS). The solution in each well was removed from the individual well. Medium containing the test compound plus capsaicin (final concentration 0.5 μM) and ^45Ca (final concentration 10 μCi/ml) in H-HBSS was added to each well and incubated at room temperature for 10 mins. Terasaki plates were washed five times with H-HBSS and dried at room temperature. To each well, 0.3% SDS (10 μl) was added to elute ^45Ca. After the addition of scintillation cocktail of into each well, the amount of ^45Ca influx into neuron was measured by counting radioactivity.

T1 sequence (O35433 whole entry): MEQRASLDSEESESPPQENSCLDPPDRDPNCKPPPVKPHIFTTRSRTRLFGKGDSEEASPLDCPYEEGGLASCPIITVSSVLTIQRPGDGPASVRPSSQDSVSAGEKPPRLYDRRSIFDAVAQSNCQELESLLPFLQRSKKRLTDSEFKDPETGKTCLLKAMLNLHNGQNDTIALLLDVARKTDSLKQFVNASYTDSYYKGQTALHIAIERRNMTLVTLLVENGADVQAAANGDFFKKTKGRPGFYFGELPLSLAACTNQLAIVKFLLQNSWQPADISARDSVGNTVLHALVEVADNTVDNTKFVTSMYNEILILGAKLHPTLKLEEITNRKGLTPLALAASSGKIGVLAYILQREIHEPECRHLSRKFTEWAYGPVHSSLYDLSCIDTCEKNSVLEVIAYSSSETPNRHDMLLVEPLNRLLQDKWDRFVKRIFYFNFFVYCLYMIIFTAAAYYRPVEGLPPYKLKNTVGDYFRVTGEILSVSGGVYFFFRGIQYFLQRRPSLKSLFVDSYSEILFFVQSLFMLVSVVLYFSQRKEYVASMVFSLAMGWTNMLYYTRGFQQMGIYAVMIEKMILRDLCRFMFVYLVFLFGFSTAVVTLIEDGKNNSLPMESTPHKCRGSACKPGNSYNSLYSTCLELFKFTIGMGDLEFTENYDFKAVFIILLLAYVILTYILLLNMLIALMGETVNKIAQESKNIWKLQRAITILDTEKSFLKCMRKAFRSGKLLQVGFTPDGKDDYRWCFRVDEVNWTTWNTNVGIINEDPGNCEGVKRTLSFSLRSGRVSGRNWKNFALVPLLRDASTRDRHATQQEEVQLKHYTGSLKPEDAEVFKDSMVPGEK

| SMILES | IC50 [nM] |
| --- | --- |
| CCOCc1nc(C(F)(F)F)ccc1/C=C/C(=O)NCc1ccc(NS(C)(=O)=O)c(F)c1 [Example 160, N-(3-Fluoro-4-methanesulfonylamino-benzyl)-3-(2-ethoxymethyl-6-trifluoromethyl-pyridin-3-yl)-acrylamide] | 2400 |
| CS(=O)(=O)Nc1ccc(CNC(=O)/C=C/c2ccc(C(F)(F)F)nc2Sc2ccccc2)cc1F [Example 140, N-(3-fluoro-4-methanesulfonylamino-benzyl)-3-(2-phenylthio-6-trifluoromethyl-pyridin-3-yl)-acrylamide] | 9700 |
| CCCCCc1nc(C(F)(F)F)ccc1/C=C/C(=O)NCc1cc(C)c(NS(C)(=O)=O)c(F)c1 [Example 214, N-(3-Fluoro-4-methanesulfonylamino-5-methyl-benzyl)-3-(2-pentyl-6-trifluoromethyl)-pyridin-3-yl-acrylamide] | 98 |
| C#Cc1cc(CNC(=O)/C=C/c2ccc(C(F)(F)F)nc2C#CCN(CC)CC)cc(F)c1NS(C)(=O)=O [Example 190] | 2300 |
| Cc1cc(CNC(=O)/C=C/c2ccc(C(F)(F)F)nc2NCc2ccccc2)ccc1NS(C)(=O)=O [Example 191, 3-(2-Benzylamino-6-trifluoromethyl-pyridin-3-yl)-N-(4-methanesulfonylamino-3-methyl-benzyl)-acrylamide] | 220 |
| C#Cc1cc(CNC(=O)/C=C/c2cccnc2N2CCOCC2)cc(F)c1NS(C)(=O)=O [Example 49, N-(3-Ethynyl-5-fluoro-4-methanesulfonylamino-benzyl)-3-(2-morpholin-4-yl-pyridin-3-yl)-acrylamide] | 5400 |
| C#Cc1cc(CNC(=O)/C=C/c2ccc(Cl)nc2)cc(F)c1NS(C)(=O)=O [Example 14, 3-(6-Chloro-pyridin-3-yl)-N-(3-ethynyl-5-fluoro-4-methanesulfonylamino-benzyl)-acrylamide] | > 10000 |
| CC(C)(C)c1ccc(OCC(=O)NCc2ccc(NS(C)(=O)=O)c(F)c2)c(Cl)n1 [Example 30, 2-(6-tert-Butyl-2-chloro-pyridin-3-yloxy)-N-(3-fluoro-4-methanesulfonylamino-benzyl)-acetamide] | 3800 |
| CCNc1nc(C(F)(F)F)ccc1/C=C/C(=O)NCc1ccc(NS(C)(=O)=O)c(F)c1 [Example 256, 3-(2-Ethylamino-6-trifluoromethyl-pyridin-3-yl)-N-(3-fluoro-4-methanesulfonylamino-benzyl)-acrylamide] | 68 |
| C=Cc1cc(CNC(=O)/C=C/c2ccc(C(C)(C)C)nc2)ccc1NS(C)(=O)=O [Examples 4] | 220 |
| CS(=O)(=O)Nc1ccc(CNC(=O)/C=C/c2ccc(C(F)(F)F)nc2NCCO)cc1F [Example 61, N-(3-Fluoro-4-methanesulfonylamino-benzyl)-3-[2-(2-hydroxy-ethylamino)-6-trifluoromethyl-pyridin-3-yl]-acrylamide] | 4900 |
| C#Cc1cc(CNC(=O)/C=C/c2ccc(C(C)(C)C)nc2)cc(F)c1NS(C)(=O)=O [Example 3, 3-(6-tert-Butyl-pyridin-3-yl)-N-(3-ethynyl-5-fluoro-4-methanesulfonylamino-benzyl)-acrylamide] | 520 |
| CS(=O)(=O)Nc1ccc(CNC(=O)/C=C/c2ccc(C(F)(F)F)nc2NC2CCCC2)cc1F [Example 89, 3-(2-Cyclopentylamino-6-trifluoromethyl-pyridin-3-yl)-N-(3-fluoro-4-methanesulfonylamino-benzyl)-acrylamide] | 280 |
| CC(C)Nc1nc(C(F)(F)F)ccc1/C=C/C(=O)NCc1cc(F)c(NS(C)(=O)=O)c(C#N)c1 [Example 122, N-(3-Cyano-5-fluoro-4-methanesulfonylamino-benzyl)-3-(2-isopropylamino-6-trifluoromethyl-pyridin-3-yl)-acrylamide] | 76 |
| CC(C)Cc1nc(C(F)(F)F)ccc1/C=C/C(=O)NCc1cc(F)c(NS(C)(=O)=O)c(C#N)c1 [Example 163, N-(3-Cyano-5-fluoro-4-methanesulfonylamino-benzyl)-3-(2-isobutyl-6-trifluoromethyl-pyridin-3-yl)-acrylamide] | 150 |
| CCC(C)Cc1nc(C(F)(F)F)ccc1/C=C/C(=O)N[C@H](C)c1ccc(NS(C)(=O)=O)c(F)c1 (stereo partly drawn) [Example 211, (R)-3-[2-(2-Methyl-butyl)-6-trifluoromethyl-pyridin-3-yl]-N-[1-(3-fluoro-4-methanesulfonylamino-phenyl)-ethyl]-acrylamide] | 62 |

| SMILES | IC50 [nM] |
| --- | --- |
| C#Cc1cc(CNC(=O)C=Cc2ccc(C(F)(F)F)nc2C#C)cc(F)c1NS(C)(=O)=O [Example 145, N-(3-Ethynyl-5-fluoro-4-methanesulfonylamino-benzyl)-3-(2-ethynyl-6-trifluoromethyl-pyridin-3-yl)-acrylamide] | 1900 |
| CCCCOc1nc(C(F)(F)F)ccc1/C=C/C(=O)NCc1cc(F)c(NS(C)(=O)=O)c(C#N)c1 [Example 98, 3-(2-Butoxy-6-trifluoromethyl-pyridin-3-yl)-N-(3-cyano-5-fluoro-4-methanesulfonylamino-benzyl)-acrylamide] | 190 |
| CC(C)c1nc(C(F)(F)F)ccc1/C=C/C(=O)N[C@H](C)c1cc(F)c(NS(C)(=O)=O)c(F)c1 [Example 242, (R)—N-[1-(3,5-Difluoro-4-methanesulfonylamino-phenyl)-ethyl]-3-(2-isopropyl-6-trifluoromethyl-pyridin-3-yl)-acrylamide] | 25 |
| CC(C)c1nc(C(F)(F)F)ccc1/C=C/C(=O)N[C@H](C)c1ccc(NS(C)(=O)=O)c(F)c1 [Example 234, (R)—N-[1-(3-Fluoro-4-methanesulfonylamino-phenyl)-ethyl]-3-(2-isopropyl-6-trifluoromethyl-pyridin-3-yl)-acrylamide] | 41 |
| C#Cc1cc(CNC(=O)/C=C/c2ccc(N3CCOCC3)nc2)cc(F)c1NS(C)(=O)=O [Examples 23] | > 10000 |
| CS(=O)(=O)Nc1c(F)cc(CNC(=O)/C=C/c2ccc(C(F)(F)F)nc2-c2cccc(F)c2)cc1F [Example 201, N-(4-Methanesulfonylamino-3,5-difluoro-benzyl)-3-[2-(3-fluoro-phenyl)-6-trifluoromethyl-pyridin-3-yl]-acrylamide] | 420 |
| CCCCCc1nc(C(F)(F)F)ccc1/C=C/C(=O)NCc1cc(F)c(NS(C)(=O)=O)c(F)c1 [Example 199, N-(3,5-Difluoro-4-methanesulfonylamino-benzyl)-3-(2-pentyl-6-trifluoromethyl)-pyridin-3-yl-acrylamide] | 92 |
| CC(C)Nc1nc(C(F)(F)F)ccc1/C=C/C(=O)NCc1ccc(NS(=O)(=O)C(F)(F)F)cc1 [Example 270, 3-(2-Isopropylamino-6-trifluoromethyl-pyridin-3-yl)-N-(4-trifluoromethanesulfonylamino-benzyl)-acrylamide] | > 10000 |
| C=CS(=O)(=O)Nc1ccc(CNC(=O)/C=C/c2ccc(C(F)(F)F)nc2CC(C)C)cc1 [Example 269, N-(4-Ethenesulfonylamino-benzyl)-3-(2-isobutyl-6-trifluoromethyl-pyridin-3-yl)-acrylamide] | 1400 |
| C#Cc1cc(CNC(=O)/C=C/c2ccc(C(F)(F)F)nc2OCC(C)C)cc(F)c1NS(C)(=O)=O [Example 74, N-(3-Ethynyl-5-fluoro-4-methanesulfonylamino-benzyl)-3-(2-isobutoxy-6-trifluoromethyl-pyridin-3-yl)-acrylamide] | 510 |
| CCCCOc1nc(C(F)(F)F)ccc1/C=C/C(=O)NCc1ccc(NS(C)(=O)=O)c(C)c1 [Example 170, 3-(2-Butoxy-6-trifluoromethyl-pyridin-3-yl)-N-(4-methanesulfonylamino-3-methyl-benzyl)-acrylamide] | 340 |
| C#Cc1cc(CNC(=O)/C=C/c2ccc(C(F)(F)F)nc2N2CCC[C@H]2C(=O)OCc2ccccc2)cc(F)c1NS(C)(=O)=O [Example 71, N-(3-Ethynyl-5-fluoro-4-methanesulfonylamino-benzyl)-3-[2-(2-benzyloxycarbonyl-pyrrolidin-1-yl)-6-trifluoromethyl-pyridin-3-yl]-acrylamide] | > 10000 |
| Cc1cc(CNC(=O)/C=C/c2ccc(C(F)(F)F)nc2CCc2ccccc2)ccc1NS(C)(=O)=O [Example 172, N-(4-Methanesulfonylamino-3-methyl-benzyl)-3-(2-phenethyl-6-trifluoromethyl-pyridin-3-yl)-acrylamide] | 69 |
| C=Cc1cc(CNC(=O)/C=C/c2ccc(C(F)(F)F)nc2Oc2ccccc2)cc(F)c1NS(C)(=O)=O [Example 133, N-(3-Fluoro-4-methanesulfonylamino-5-vinyl-benzyl)-3-(2-phenoxy-6-trifluoromethyl-pyridin-3-yl)-acrylamide] | 280 |
| C#Cc1cc(CNC(=O)/C=C/c2ccc(C(F)(F)F)nc2OCCCC)cc(F)c1NS(C)(=O)=O [Example 66, 3-(2-Butoxy-6-trifluoromethyl-pyridin-3-yl)-N-(3-ethynyl-5-fluoro-4-methanesulfonylamino-benzyl)-acrylamide] | 250 |
